Where only a bound is given, the exact number is not on record here.

For orientation: IC50 means the midpoint of a concentration-inhibition curve.

This assay has as its target T1, ALK 5 (Homo sapiens, UniProt P36897).
T1 sequence (P36897 34-503): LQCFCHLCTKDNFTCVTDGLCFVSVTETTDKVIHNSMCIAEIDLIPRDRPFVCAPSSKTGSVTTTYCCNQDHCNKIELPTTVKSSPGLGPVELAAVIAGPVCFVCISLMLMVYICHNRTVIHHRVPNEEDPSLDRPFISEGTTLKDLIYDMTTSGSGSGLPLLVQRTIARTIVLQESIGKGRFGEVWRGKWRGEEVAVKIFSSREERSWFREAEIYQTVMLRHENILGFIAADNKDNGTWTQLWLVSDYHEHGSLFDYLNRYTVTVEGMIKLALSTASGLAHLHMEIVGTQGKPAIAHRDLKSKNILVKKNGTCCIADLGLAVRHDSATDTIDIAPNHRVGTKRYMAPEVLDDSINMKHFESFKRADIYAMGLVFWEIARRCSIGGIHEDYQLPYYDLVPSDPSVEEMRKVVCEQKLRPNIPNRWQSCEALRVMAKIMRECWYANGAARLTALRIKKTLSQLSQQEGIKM
The assay is described as follows: In vitro kinase assay (ALK5 IC50, LanthaScreen Terbium labeled TR-FRET). The format is biochemical. The note with it: TGF-β kinase 6 nM, ATP 10 μM, read-out: Enzyme Activity ALK 5 IC50. On the procedure:
Compounds of the invention were screened in an in vitro kinase assay against ALK 5, a members of the TGF-β family of Ser/Thr kinases. Standard kinase testing conditions and techniques were employed. IC50 values of compounds against TGF-ß kinase was determined by LanthaScreen™ Terbium Labeled TR-FRET assay. Kinase assays were performed in 1X kinase buffer (# PV6135, Invitrogen, Life Technologies Grand Island, N.Y.) where total reaction volume was 10 μL in low-volume 384-well plates (#4511, Corning). Serially diluted compounds (3-fold) were incubated with TGF-β kinase (6 nM) for 10 min, following which a mixture of ATP (10 μM) (# A1852, Sigma, St-Louis, Mo.) and fluorescent-PolyGT substrate (200 nM); Cat # PV3610, Invitrogen, Life Technologies Grand Island, N.Y.) was added and incubated in dark at room temperature for 1 h. After 1 h, 10 μL stop solution containing Terbium labeled antibody (4 nM; Cat # PV3529, Invitrogen, Life Technologies Grand Island, N.Y.) and EDTA (# E5134, Sigma, St-Louis, Mo.; 20 mM) in TR-FRET dilution buffer (Cat # PV3574, Invitrogen, Life Technologies Grand Island, N.Y.) was added. Readings were taken in a Synergy Neo Plate reader (BioTek, Winooski) at single excitation of 340 nm and Dual emission at 495 nm and 520 nm respectively.
The % activity of test samples was calculated as (Sample-Min)×100/(Max −Min). [Max: DMSO control, complete reaction with enzyme with DMSO and Min: No enzyme with DMSO]. Percent inhibition (100-% activity) was fitted to the “four-parameter logistic model” in XLfit for determination of IC50 values.
On the technique in general: In TR-FRET formats the signal depends on donor and acceptor labels being close together.
For `CN(C)c1[nH]c(=O)c(-c2cc(Cl)ccc2F)cc1Nc1ccnc2c1ccn2C` [Compound 1.28, 3-(5-chloro-2-fluorophenyl)-6-(dimethylamino)-5-((1-methyl-1H-pyrrolo[2,3-b]pyridin-4-yl)amino)pyridin-2(1H)-one], the 50% inhibitory concentration (IC50) was over 5 µM.

As for `CN(C)c1[nH]c(=O)c(-c2cc(Cl)ccc2F)cc1Nc1ccncc1C(=O)NC1CC1` [Compound 1.30, 4-((5-(5-chloro-2-fluorophenyl)-2-(dimethylamino)-6-hydroxypyridin-3-yl)amino)-N-cyclopropylnicotinamide], the IC50 lay within 2 to 5 µM.

Turning to `CN(C)c1[nH]c(=O)c(-c2cc(Cl)ccc2F)cc1Nc1ccncc1C(=O)NC(C)(C)CO` [Compound 1.31, 4-((5-(5-chloro-2-fluorophenyl)-2-(dimethylamino)-6-hydroxypyridin-3-yl)amino)-N-(1-hydroxy-2-methylpropan-2-yl)nicotinamide], the IC50 was over 5 µM.

With `CN(C)c1[nH]c(=O)c(-c2cc(Cl)ccc2F)cc1Nc1ccnc2cc(C(F)(F)F)ccc12` [Compound 1.33, 3-(5-chloro-2-fluorophenyl)-6-(dimethylamino)-5-((7-(trifluoromethyl)quinolin-4-yl)amino)pyridin-2(1H)-one], the IC50 is 2 to 5 µM.

For `CN(C)c1[nH]c(=O)c(-c2cc(Cl)ccc2F)cc1Nc1ccncc1C#N` [Compound 1.34, 4-((5-(5-chloro-2-fluorophenyl)-2-(dimethylamino)-6-oxo-1,6-dihydropyridin-3-yl)amino)nicotinonitrile], the IC50 is over 5 µM.

As to `CN(C)c1[nH]c(=O)c(-c2cc(Cl)ccc2F)cc1Nc1ccncc1C1=NCCN1` [Compound 1.35, 3-(5-chloro-2-fluorophenyl)-5-((3-(4,5-dihydro-1H-imidazol-2-yl)pyridin-4-yl)amino)-6-(dimethylamino)pyridin-2(1H)-one], the IC50 is 2 to 5 µM.

With `CSc1[nH]c(=O)c(-c2cc(Cl)ccc2F)cc1Nc1ccnc2ccncc12` [Compound 1.36, 5-((1,6-naphthyridin-4-yl)amino)-3-(5-chloro-2-fluorophenyl)-6-(methylthio)pyridin-2(1H)-one], the IC50 was at most 0.5 µM.

Turning to `CN(C)c1[nH]c(=O)c(-c2cc(Cl)ccc2F)cc1Nc1ccnc2ccncc12` [Compound 1.37, 5-((1,6-naphthyridin-4-yl)amino)-3-(5-chloro-2-fluorophenyl)-6-(dimethylamino)pyridin-2(1H)-one], the IC50 lay in the range of 2 to 5 µM.

On to `CNC(=O)c1cnccc1Nc1cc(-c2cc(Cl)ccc2F)c(=O)[nH]c1N(C)C` [Compound 1.38, 4-((5-(5-chloro-2-fluorophenyl)-2-(dimethylamino)-6-oxo-1,6-dihydropyridin-3-yl)amino)-N-methylnicotinamide], for which the IC50 was 0.5 to 2 µM.

Turning to `CNC(=O)c1cnccc1Nc1cc(-c2cc(Cl)ccc2F)c(=O)[nH]c1SC` [Compound 1.39, 4-((5-(5-chloro-2-fluorophenyl)-2-(methylthio)-6-oxo-1,6-dihydropyridin-3-yl)amino)-N-methylnicotinamide], the IC50 is at most 0.5 µM.

For the compound `CN(C)c1[nH]c(=O)c(-c2cc(Cl)ccc2F)cc1Nc1ccncc1F` [Compound 1.41, 3-(5-chloro-2-fluorophenyl)-6-(dimethylamino)-5-((3-fluoropyridin-4-yl)amino)pyridin-2 (1H)-one], the IC50 fell in the range of 2 to 5 µM.

`CC(C)c1[nH]c(=O)c(-c2cc(Cl)ccc2F)cc1Nc1ccnc2ccncc12` [Compound 1.42, 5-((1,6-naphthyridin-4-yl)amino)-3-(5-chloro-2-fluorophenyl)-6-isopropylpyridin-2(1H)-one]: the IC50 fell in the range of 2 to 5 µM.

On to `CC(C)c1[nH]c(=O)c(-c2cc(Cl)ccc2F)cc1Nc1ccnc(N)c1` [Compound 1.44, 5-((2-aminopyridin-4-yl)amino)-3-(5-chloro-2-fluorophenyl)-6-isopropylpyridin-2(1H)-one], for which the IC50 is over 5 µM.

On to `CC(C)c1[nH]c(=O)c(-c2cc(Cl)ccc2F)cc1Nc1ccnc(NC(=O)C2CC2)c1` [Compound 1.45, N-(4-((5-(5-chloro-2-fluorophenyl)-2-isopropyl-6-oxo-1,6-dihydropyridin-3-yl)amino)pyridin-2-yl)cyclopropanecarboxamide], for which the IC50 was over 5 µM.

With `CC(C)c1[nH]c(=O)c(-c2cc(Cl)ccc2F)cc1Nc1ccnc(NC(=O)CCC(F)(F)F)c1` [Compound 1.46, N-(4-((5-(5-chloro-2-fluorophenyl)-2-isopropyl-6-oxo-1,6-dihydropyridin-3-yl)amino)pyridin-2-yl)-4,4,4-trifluorobutanamide], the IC50 was over 5 µM.

On to `CC(C)c1[nH]c(=O)c(-c2cc(Cl)ccc2F)cc1Nc1ccnc(NC(=O)CN2CCCC2)c1` [Compound 1.47, N-(4-((5-(5-chloro-2-fluorophenyl)-2-isopropyl-6-oxo-1,6-dihydropyridin-3-yl)amino)pyridin-2-yl)-2-(pyrrolidin-1-yl)acetamide], for which the IC50 is at most 0.5 µM.

With `CC(C)c1[nH]c(=O)c(-c2cc(Cl)ccc2F)cc1Nc1ccnc(NC(=O)C(C)(C)C)c1` [Compound 1.49, N-(4-((5-(5-chloro-2-fluorophenyl)-2-isopropyl-6-oxo-1,6-dihydropyridin-3-yl)amino)pyridin-2-yl)pivalamide], the IC50 is over 5 µM.

For `CC(=O)Nc1cc(Nc2cc(-c3ccc(F)nc3)c(=O)[nH]c2C(C)C)ccn1` [Compound 1.51, N-(4-((6′-fluoro-6-isopropyl-2-oxo-1,2-dihydro-[3,3′-bipyridin]-5-yl)amino)pyridin-2-yl)acetamide], the IC50 is over 5 µM.

Regarding `CC(C)c1[nH]c(=O)c(-c2ccc(F)nc2)cc1Nc1ccnc2[nH]ccc12` [Compound 1.52, 5-((1H-pyrrolo[2,3-b]pyridin-4-yl)amino)-6′-fluoro-6-isopropyl-[3,3′-bipyridin]-2(1H)-one], the IC50 is over 5 µM.

As for `CC(=O)Nc1cc(Nc2cc(-c3ccccc3CO)c(=O)[nH]c2C(C)C)ccn1` [Compound 1.53, N-(4-((5-(2-(hydroxymethyl)phenyl)-2-isopropyl-6-oxo-1,6-dihydropyridin-3-yl)amino)pyridin-2-yl)acetamide], the IC50 is over 5 µM.

With `CC(=O)Nc1cc(Nc2cc(-c3cccc(C#N)c3)c(=O)[nH]c2C(C)C)ccn1` [Compound 1.54, N-(4-((5-(3-cyanophenyl)-2-isopropyl-6-oxo-1,6-dihydropyridin-3-yl)amino)pyridin-2-yl)acetamide], the IC50 lay in the range of 0.5 to 2 µM.

As to `CC(C)c1[nH]c(=O)c(-c2cc(Cl)ccc2F)cc1Nc1ccnc(NC2CC2)c1` [Compound 1.55, 3-(5-chloro-2-fluorophenyl)-5-((2-(cyclopropylamino)pyridin-4-yl)amino)-6-isopropylpyridin-2(1H)-one], the IC50 fell in the range of 2 to 5 µM.

As for `CC(=O)Nc1cc(Nc2cc(-c3ccc(C(F)(F)F)nc3)c(=O)[nH]c2C(C)C)ccn1` [Compound 1.56, N-(4-((6-isopropyl-2-oxo-6′-(trifluoromethyl)-1,2-dihydro-[3,3′-bipyridin]-5-yl)amino)pyridin-2-yl)acetamide], the IC50 is over 5 µM.

`CC(C)c1[nH]c(=O)c(-c2cc(Cl)ccc2F)cc1Nc1c(F)cnc2[nH]ccc12` [Compound 1.57, 3-(5-chloro-2-fluorophenyl)-5-((5-fluoro-1H-pyrrolo[2,3-b]pyridin-4-yl)amino)-6-isopropylpyridin-2(1H)-one]: the IC50 is at most 0.5 µM.

Regarding `CC(=O)Nc1cc(Nc2cc(-c3ccc(F)c(Cl)c3)c(=O)[nH]c2C(C)C)ccn1` [Compound 1.58, N-(4-((5-(3-chloro-4-fluorophenyl)-2-isopropyl-6-oxo-1,6-dihydropyridin-3-yl)amino)pyridin-2-yl)acetamide], the IC50 is at most 0.5 µM.

On to `CC(C)c1[nH]c(=O)c(-c2cc(Cl)ccc2F)cc1Nc1ccnc2[nH]ccc(=O)c12` [Compound 1.59, 5-((5-(5-chloro-2-fluorophenyl)-2-isopropyl-6-oxo-1,6-dihydropyridin-3-yl)amino)-1,8-naphthyridin-4(1H)-one], for which the IC50 was over 5 µM.

For `CC(C)c1[nH]c(=O)c(-c2cc(Cl)ccc2F)cc1Nc1ccnc(C(C)(C)C#N)c1` [Compound 1.60, 2-(4-((5-(5-chloro-2-fluorophenyl)-2-isopropyl-6-oxo-1,6-dihydropyridin-3-yl)amino)pyridin-2-yl)-2-methylpropanenitrile], the IC50 was over 5 µM.

Source of the values: patent US20200247812A1 (Integral Biosciences Private Limited, priority 2018, published 2020).
